In PubChem BioAssay AID2305 (GlaxoSmithKline (GSK), 2010) one finds IC50 data, which are given here for 87 compounds.

In the experiment the test system is P. falciparum 3D7 growth, pLDH absorbance. Briefly: P. falciparum 3D7 growth inhibition, dose response, strain 3D7 (AID 2305).

For the compound `CN(C)CCCN1CCN(C(=O)c2cc3cc(-c4ccccc4)ccc3n2S(=O)(=O)c2ccccc2)CC1`, the IC50 (as a rule, the concentration that inhibits the measured activity by half) came out at 120 nM.

In turn, `CC1(C)N=C(N)NC(Nc2ccc(Cl)cc2)=N1` came in with an IC50 of 340 nM.

As to `CCNc1cc(C(=O)N[C@@H](Cc2cc(F)cc(F)c2)[C@H](O)CNCc2cccc(C(F)(F)F)c2)cc(N2CCCCS2(=O)=O)c1`, the IC50 came out at 610 nM.

`CN1CCN(c2ccnc3cc4ccccc4cc23)CC1` displayed an IC50 of 950 nM.

The compound `ON=C1CCc2cc(-c3cc(-c4ccc(OC5CCNCC5)cc4)oc3-c3ccncc3)ccc21` came in with an IC50 of 160 nM.

On to `Cc1cccc2[nH]c(-c3ccc(-c4ccc(CNCc5cccc(N)c5)cc4)s3)nc12`, for which the IC50 was determined as 750 nM.

`O=C(NC1CCN(Cc2ccccc2)CC1)c1ccc(-c2nc3cc(Cl)c(Cl)cc3[nH]2)s1` registered an IC50 of 310 nM.

The compound `CCOCCCNc1ncc(-c2ccsc2)c(-c2nc(C)cs2)n1` yielded an IC50 of 270 nM.

`CC(C)N1CCN(C(=O)c2ccc(CNCCCN3CCN(c4cccc(Cl)c4Cl)CC3)o2)CC1`: the IC50 was 740 nM.

In the case of `COc1nc2c(CCN3CC[C@H](NCc4ccc5c(c4)NC(=O)CO5)[C@H](O)C3)c(Cl)cnc2cc1F`, the IC50 came out at 1020 nM.

`Oc1cccc(Nc2nc(NCc3ccccc3)c3ccccc3n2)c1` displayed an IC50 of 40 nM.

As to `CCN(CC)CCOc1ccc(C(O)(C#CC(O)(c2ccc(Br)cc2)c2ccc(OCCN(CC)CC)cc2)c2ccc(Br)cc2)cc1` (configuration not stated), the 50% inhibitory concentration (IC50) was 620 nM.

In turn, `O=C(Nc1ccc(N2CCN(C(=O)C=Cc3ccccc3)CC2)c(Cl)c1)c1ccc([N+](=O)[O-])o1` showed an IC50 of 860 nM.

For the compound `Cc1nc(-c2ccc(C(F)(F)F)cn2)sc1C(=O)N1CCc2cc3nccc(N4CCN5CCC[C@H]5C4)c3cc21`, the IC50 is 780 nM.

`CCCCCN=C(N)N/N=C/c1c[nH]c2ccc(OC)cc12` gave a 50% inhibitory concentration (IC50) of 960 nM.

In the case of `COc1ccc(CNc2ncnc3c2[nH]c2ccc(F)cc23)cc1`, the half-inhibitory concentration (IC50) worked out at 980 nM.

`O=C(Nc1cccc(C2=NCCCN2)c1)Nc1cccc(C2=NCCCN2)c1` yielded a concentration for half-maximal inhibition (IC50) of 560 nM.

Compound `CCOCc1cnc(C)nc1CNC(=O)c1c(C)[nH]c2ccc(C)cc12` gave a 50% inhibitory concentration (IC50) of 1010 nM.

As to `Cc1nc(-c2nc(NCCc3ccncc3)ncc2-c2ccsc2)sc1C`, the IC50 came to 300 nM.

As to `CN1CCC(NC(=O)c2cccc(Nc3cc(Nc4cccc(Br)c4)ncn3)c2)CC1`, the 50% inhibitory concentration (IC50) was 1010 nM.

`O=C(N[C@@H](CC1CCCCC1)C(=O)NCCN1CCCCC1)c1ccc(O)c(-c2cccc(C(F)(F)F)c2)c1` had an IC50 of 830 nM.

`CN1CCN(Cc2c(O)ccc3c(=O)c(Oc4ccc(C(C)(C)C)cc4)c(C(F)(F)F)oc23)CC1` showed a half-inhibitory concentration (IC50) of 810 nM.

For `Cc1ccccc1C1CCN(C2CCC(NC(=O)C3=Cc4ccccc4OC3)CC2)CC1` (configuration not stated), the 50% inhibitory concentration (IC50) worked out at 930 nM.

`CCN(CC)CCCC(C)Nc1ccnc2ccc(OC)cc12` (configuration not stated) gave a concentration for half-maximal inhibition (IC50) of 820 nM.

On to `CCOc1ccc(C(=O)Nc2cc(Br)c3c(c2)CNCC3)cc1Br`, for which the IC50 was 990 nM.

Take `COc1ccc2c(NN=Cc3ccncc3)cc(C)nc2c1`: the IC50 is 810 nM.

Regarding `CN(C)c1ccc(-c2nnc(Sc3ccc(C#N)c([N+](=O)[O-])c3)n2Cc2ccco2)cc1`, the IC50 stood at 850 nM.

On to `COc1c(C2CCN(CCCCNC(=O)c3cc(-c4ccc(Cl)cc4)sc3C)CC2)ccc2c1CCCC2`, for which the 50% inhibitory concentration (IC50) is 630 nM.

Regarding `CC(=O)Nc1nc(C(=O)Nc2cccc(-c3cccc(-c4nc5ccc(F)cc5[nH]4)c3)c2)cs1`, the IC50 was found to be 90 nM.

Consider `COc1c(C2CCN(CCCCNC(=O)c3ccc(NC(=O)c4ccc(C#N)cc4)cc3)CC2)ccc2c1CCCC2`, for which the IC50 was determined as 290 nM.

In turn, `Clc1ccc2c(NN=Cc3cccs3)ccnc2c1` gave an IC50 of 920 nM.

The compound `Nc1nc2ccc(S(=O)(=O)Nc3ccc(C(=O)N[C@@H](CCC(=O)O)C(=O)O)c(F)c3)cc2c(=O)[nH]1` had a 50% inhibitory concentration (IC50) of 820 nM.

In turn, `COC(=O)c1ccc(CC(C)NCC(O)c2cccc(Oc3cccc(C(F)(F)F)c3)c2)cc1` (configuration not stated) gave a concentration for half-maximal inhibition (IC50) of 1170 nM.

The compound `CC(C)(C)C1CCc2nc(N)nc(N)c2C1` (configuration not stated) registered a half-maximal inhibitory concentration (IC50) of 10 nM.

`Cc1cccc2[nH]c(-c3cccc(-c4cccc(NC(=O)c5cccnc5)c4)c3)nc12` returned a half-inhibitory concentration (IC50) of 230 nM.

Consider `N[C@@H](Cc1ccc(O)cc1)C(=O)NC(c1ccccc1)c1c(O)ccc2ccccc12` (some centres not stated), for which the IC50 came to 690 nM.

Compound `CCCCCCCCNCC(O)c1cc(-c2ccc(Cl)cc2)nc2cc(C)ccc12` (configuration not stated) had a half-maximal inhibitory concentration (IC50) of 80 nM.

Consider `COc1cc(OC)c2c(c1Cl)O[C@]1(C2=O)C(=O)C(Cc2ccccc2)(Cc2ccccc2)C(=O)C[C@H]1C`, for which the IC50 was determined as 970 nM.

For `CN=C(NC)c1cccc(NC(=O)C=Cc2ccc(C=CC(=O)Nc3cccc(C(=NC)NC)c3)cc2)c1`, the IC50 came to 160 nM.

The compound `CC(=O)Nc1cccc(C(=O)Nc2cccc(-c3ccc(-c4nc5c(C)cccc5[nH]4)cc3)c2)c1` came in with an IC50 of 910 nM.

The compound `COc1ccc(Nc2nc(NCc3cccnc3)cc(-c3ccc(OC)cc3)n2)cc1` showed an IC50 of 1400 nM.

Consider `CCc1ccc(CN2CCC(C(=O)Nc3ccc(-c4nc5ccccc5[nH]4)cc3)CC2)o1`, for which the concentration for half-maximal inhibition (IC50) was determined as 610 nM.

Compound `c1cc(-c2ccc(CNCCc3ccncc3)cc2)cc(-c2nc3ccccc3[nH]2)c1` yielded a half-maximal inhibitory concentration (IC50) of 140 nM.

Compound `CC(C)(C)NCCN(Cc1ccc(-c2ccc(C(F)(F)F)cc2)cc1)C(=O)Cn1c(CCc2cccc(F)c2F)nc(=O)c2ccccc21` came in with an IC50 of 760 nM.

In the case of `CCCCCCN1CCCN(Cc2ccc(C(=O)Nc3ccc(F)c(F)c3)cc2)CC1`, the IC50 worked out at 610 nM.

`CN1CCC(C(=O)N(Cc2ccc(-c3ccc(CNCCc4ccccc4)cn3)cc2)C2CCN(Cc3ccccc3)CC2)CC1` displayed an IC50 of 790 nM.

Consider `Cc1cc(-c2cccc(CNC3CCN(C)CC3)c2)ccc1S(=O)(=O)NCCN1CCCC1`, for which the IC50 stood at 980 nM.

As to `Cc1ccc(CC(C)NC[C@H](O)c2cccc(Cl)c2)cc1` (some centres not stated), the half-maximal inhibitory concentration (IC50) worked out at 860 nM.

For the compound `COc1cccc(CN2CCC(C(=O)Nc3ccc(-c4nc5ccccc5[nH]4)cc3)CC2)c1`, the half-maximal inhibitory concentration (IC50) amounted to 630 nM.

`O=C(Cc1cccc(Cl)c1)Nc1cccc(-c2c[nH]c3nc(Nc4ccccc4)ncc23)c1`: the half-inhibitory concentration (IC50) was 680 nM.

In turn, `Cc1noc(C)c1-c1ccc2c(Nc3nccc4ccccc34)c(C(N)=O)cnc2c1` had a 50% inhibitory concentration (IC50) of 890 nM.

In turn, `Cc1ccccc1N1CCN(c2ccc(C(=O)Nc3ccccc3)cc2)CC1` displayed an IC50 of 720 nM.

In the case of `CCCOc1ccc(N2C(N)=NC(N)=NC2(C)C)cc1`, the IC50 turned out to be 490 nM.

In turn, `O=C(NC1c2ccccc2Oc2ccccc21)c1ccccc1O` displayed an IC50 of 840 nM.

For `CC(C)(C)c1cc(CN2CCN(Cc3ccccc3)CC2)cc(C(C)(C)C)c1O`, the IC50 was found to be 770 nM.

`COc1ccc(-c2ccc(NC(=O)c3cccc(C#N)c3)cc2)cc1CN1CCC(O)CC1` returned an IC50 of 820 nM.

Regarding `CCn1c(SC)nnc1C1CCCN(CC(=O)Nc2nc3ccc(OC)cc3s2)C1` (configuration not stated), the half-maximal inhibitory concentration (IC50) was determined as 750 nM.

With `NC(N)=NN=Cc1c2ccc(Cl)cc2c(Cl)c2ccc(Cl)cc12`, the half-maximal inhibitory concentration (IC50) came out at 960 nM.

Consider `O=C(Nc1ccnc2ccccc12)NC1CCN(CCc2ccccc2)CC1`, for which the IC50 was determined as 360 nM.

In turn, `C=C[C@H]1CN(CCCCCCC)CC[C@H]1CC(O)Cc1ccnc2cc(O)c(OC)cc12` (some centres not stated) gave an IC50 of 820 nM.

Regarding `Cc1ccccc1C1CCN(C2CCC(NC(=O)/C=C/c3c(F)ccc(F)c3F)CC2)CC1` (configuration not stated), the IC50 is 1260 nM.

The compound `COc1ccc(CCN(C)CCCN2CCC(NC(=O)c3cccc4c(=O)c5ccccc5[nH]c34)CC2)cc1OC` had a 50% inhibitory concentration (IC50) of 690 nM.

For `COc1ccc2nc(SC(C)C(=O)c3c[nH]c4ccccc34)[nH]c2c1` (configuration not stated), the IC50 turned out to be 1280 nM.

Compound `COc1ccc(C(=O)CCC(=O)N(Cc2ccc(-c3ccc(CNCCc4ccccc4)cn3)cc2)C(C)CN(C)C)cc1F` (configuration not stated) yielded a half-inhibitory concentration (IC50) of 750 nM.

`COc1ccc(Cc2c(C)nc3nc(N)nc(N)c3c2C)cc1OC` yielded an IC50 of 910 nM.

For the compound `O=C(/C=C/c1ccc(Cl)c(Cl)c1)NCCCCCN1CCC(NC(=O)Nc2cc(F)ccc2F)CC1`, the concentration for half-maximal inhibition (IC50) was found to be 700 nM.

The compound `COc1ccc2nc3cc(Cl)ccc3c(NCCCCN)c2c1` registered an IC50 of 730 nM.

`COCCNCc1cccc(-c2ccccc2CN(C(=O)c2ccc3c(c2)OCO3)c2ccc(OC)cc2)c1` came in with a 50% inhibitory concentration (IC50) of 1110 nM.

As to `CC(C)c1ccc(S(=O)(=O)Nc2cccc(CCN3CCC(N4CCCCC4)CC3)c2)cc1`, the IC50 worked out at 1120 nM.

The compound `O=C(Nc1ccc2c(c1)OCCO2)c1cc(-c2cccnc2)nc2ccc(Cl)cc12` registered an IC50 of 710 nM.

With `O=C(NCc1cccc(F)c1)Nc1cccc(-c2ccc(-c3nc4ccc(C(F)(F)F)cc4[nH]3)cc2)c1`, the half-inhibitory concentration (IC50) amounted to 770 nM.

Turning to `OCCNc1nc(Nc2ccccc2)nc2ccccc12`, the concentration for half-maximal inhibition (IC50) is 130 nM.

As for `Cc1ccccc1C1CCN(C2CCC(NC(=O)/C=C/c3ccc(C(F)(F)F)cc3)CC2)CC1` (configuration not stated), the IC50 came to 1040 nM.

As for `O=C(Cn1c(CCc2cccc(F)c2F)cc(=O)c2ccccc21)N(CCN1CCCC1)Cc1ccc(-c2ccc(C(F)(F)F)cc2)cc1`, the IC50 worked out at 860 nM.

For the compound `O=C(CCc1nc2c(cnn2-c2ccccc2)c(=O)[nH]1)NC1CCSc2ccccc21` (configuration not stated), the IC50 came to 1060 nM.

As for `Oc1ccc(CCNCCCCCCNCCc2ccc(Cl)cc2)c(Cl)c1O`, the half-inhibitory concentration (IC50) worked out at 780 nM.

On to `CCS[C@@H]1O[C@H](COC(=O)c2ccccc2)[C@H](OC(=O)c2ccccc2)[C@H](OC(=O)c2ccccc2)[C@H]1OC(=O)c1ccccc1`, for which the concentration for half-maximal inhibition (IC50) is 810 nM.

Take `O=C(Nc1cccc(-c2cccc(CN3CCCC3)c2)c1)c1ccc(Cl)cc1`: the IC50 turned out to be 680 nM.

With `CCCCc1cc(NCc2ccncc2)nc(Nc2ccccc2)n1`, the IC50 turned out to be 840 nM.

With `COc1ccc2ccc(F)c(CC(=O)N3CCOC(CNCc4cccc(-c5ccsc5)n4)C3)c2n1` (configuration not stated), the half-inhibitory concentration (IC50) was determined as 1170 nM.

For the compound `Cc1cccc(C)c1C1CCN(CCCCNC(=O)c2cc3ccccc3[nH]2)CC1`, the half-inhibitory concentration (IC50) came out at 890 nM.

Compound `COc1cc2nc(N3CCC(CNC(=O)c4ccc(-c5ccc(C(F)(F)F)cc5)cc4)CC3)nc(N)c2cc1OC` showed a half-inhibitory concentration (IC50) of 130 nM.

The compound `CS(=O)(=O)NCCCNCc1ccc(-c2cccc(-c3nc4ccc(C(F)(F)F)cc4[nH]3)c2)cc1` showed an IC50 of 850 nM.

For the compound `COc1cc(Cc2cnc(N)nc2N)cc(OCCn2ccccc2=O)c1OC`, the IC50 was determined as 770 nM.

Consider `COc1ccc(-c2cccc(NC(=O)c3ccc(C#N)cc3)c2)cc1CN1CCN(C)CC1`, for which the concentration for half-maximal inhibition (IC50) came to 990 nM.

Compound `Nc1ccc(-c2nc3ccc(Cc4ccc5nc(-c6ccc(N)cc6)[nH]c5c4)cc3[nH]2)cc1` displayed an IC50 of 510 nM.

`CCN(CC)CCN(Cc1ccc(-c2ccc(C(F)(F)F)cc2)cc1)C(=O)Cn1c(CCc2ccc(F)c(C#N)c2)nc(=O)c2ccccc21` displayed a concentration for half-maximal inhibition (IC50) of 770 nM.
